Measured values published in ChEMBL document CHEMBL1201862, “PubChem BioAssay data set” (2004).
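Five concentrations, 48 hours, 96-well plates. Abbreviation: GI50, concentration required for 50% inhibition of growth.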 The source made the active and inactive calls. No stated cut-off is given here; in the data, active = GI50 up to about 1.1 µM and inactive = higher.

Tests used:
Assay in all cases: DTP human tumour cell line panel, 48 h
786-0 = test system: 786-0
CAKI-1 = test system: CAKI-1
COLO 205 = test system: COLO 205
DU-145 = test system: DU-145
HT-29 = test system: HT-29
IGROV-1 = test system: IGROV-1
M14 = test system: M14
MOLT-4 = test system: MOLT-4
Malme-3M = test system: Malme-3M
NCI-H522 = test system: NCI-H522
NCI/ADR-RES = test system: NCI/ADR-RES
RXF 393 = test system: RXF 393
SF-539 = test system: SF-539
SK-MEL-28 = test system: SK-MEL-28
SK-MEL-5 = test system: SK-MEL-5
SW-620 = test system: SW-620
T47D = test system: T47D
U-251 = test system: U-251
UACC-257 = test system: UACC-257
UO-31 = test system: UO-31

## C#C[C@]1(O)CC[C@H]2[C@@H]3CCc4cc(OC(=O)c5cccc6cc7ccccc7nc56)ccc4[C@H]3CC[C@@]21C
786-0
  GI50: 27.5 µM (inactive)
CAKI-1
  GI50: 23 µM (inactive)
COLO 205
  GI50: 11 µM (inactive)
DU-145
  GI50: 23.5 µM (inactive)
HT-29
  GI50: 33.9 µM (inactive)
IGROV-1
  GI50: 14.6 µM (inactive)
M14
  GI50: 31 µM (inactive)
MOLT-4
  GI50: 6.98 µM (inactive)
Malme-3M
  GI50: 6.44 µM (inactive)
NCI-H522
  GI50: 15.5 µM (inactive)
NCI/ADR-RES
  GI50: 28.8 µM (inactive)
RXF 393
  GI50: 44.4 µM (inactive)
SF-539
  GI50: 31.6 µM (inactive)
SK-MEL-28
  GI50: 35.9 µM (inactive)
SK-MEL-5
  GI50: 13.6 µM (inactive)
SW-620
  GI50: 29.7 µM (inactive)
T47D
  GI50: 13.9 µM (inactive)
U-251
  GI50: 24 µM (inactive)
UACC-257
  GI50: 63.4 µM (inactive)

## CCCCCCCCCCCCCCCC(=O)OCC1OC(n2ccc(N)nc2=O)C(O)C1O (stereo not given)
786-0
  GI50: 4.29 µM (inactive)
CAKI-1
  GI50: 5.36 µM (inactive)
COLO 205
  GI50: 15 µM (inactive)
DU-145
  GI50: 2.12 µM (inactive)
HT-29
  GI50: 35.2 µM (inactive)
IGROV-1
  GI50: > 100 µM (inactive)
M14
  GI50: 0.931 µM (active)
MOLT-4
  GI50: 0.0274 µM (active)
Malme-3M
  GI50: 5.28 µM (inactive)
NCI-H522
  GI50: 3.08 µM (inactive)
NCI/ADR-RES
  GI50: > 48.3 µM (inactive)
RXF 393
  GI50: > 85.3 µM (inactive)
SF-539
  GI50: > 100 µM (inactive)
SK-MEL-28
  GI50: 33.5 µM (inactive)
SK-MEL-5
  GI50: 18.5 µM (inactive)
T47D
  GI50: > 100 µM (inactive)
U-251
  GI50: 21.8 µM (inactive)
UACC-257
  GI50: 33.4 µM (inactive)
UO-31
  GI50: 1.67 µM (inactive)

## CC(C)(C)OC(=O)n1cc(C2CN(O)C(=O)C23CCC(=O)N3Cc2ccccc2)c2ccccc21 (stereo not given)
786-0
  GI50: 45.9 µM (inactive)
CAKI-1
  GI50: 54.6 µM (inactive)
COLO 205
  GI50: 36.1 µM (inactive)
DU-145
  GI50: 60.1 µM (inactive)
HT-29
  GI50: 39.9 µM (inactive)
IGROV-1
  GI50: 18.8 µM (inactive)
M14
  GI50: > 100 µM (inactive)
MOLT-4
  GI50: > 100 µM (inactive)
Malme-3M
  GI50: > 100 µM (inactive)
NCI-H522
  GI50: 14.1 µM (inactive)
NCI/ADR-RES
  GI50: 69.5 µM (inactive)
RXF 393
  GI50: 68.4 µM (inactive)
SF-539
  GI50: 49 µM (inactive)
SK-MEL-5
  GI50: 29.4 µM (inactive)
SW-620
  GI50: 68.7 µM (inactive)
T47D
  GI50: 50.6 µM (inactive)
U-251
  GI50: 36.9 µM (inactive)
UACC-257
  GI50: 64.1 µM (inactive)
UO-31
  GI50: 40.7 µM (inactive)

## CC1(C)Oc2ccc3c(=O)cc(-c4cccs4)oc3c2C1C(=O)O (stereo not given)
786-0
  GI50: > 100 µM (inactive)
CAKI-1
  GI50: 23.2 µM (inactive)
COLO 205
  GI50: > 100 µM (inactive)
DU-145
  GI50: > 100 µM (inactive)
HT-29
  GI50: > 100 µM (inactive)
IGROV-1
  GI50: > 100 µM (inactive)
M14
  GI50: > 100 µM (inactive)
MOLT-4
  GI50: > 100 µM (inactive)
Malme-3M
  GI50: > 100 µM (inactive)
NCI-H522
  GI50: > 100 µM (inactive)
NCI/ADR-RES
  GI50: > 100 µM (inactive)
RXF 393
  GI50: > 100 µM (inactive)
SF-539
  GI50: > 100 µM (inactive)
SK-MEL-5
  GI50: > 100 µM (inactive)
T47D
  GI50: > 100 µM (inactive)
U-251
  GI50: > 100 µM (inactive)
UACC-257
  GI50: > 100 µM (inactive)

## O=C1CCc2cc([N+](=O)[O-])ccc2O1
786-0
  GI50: > 100 µM (inactive)
CAKI-1
  GI50: > 100 µM (inactive)
COLO 205
  GI50: > 100 µM (inactive)
DU-145
  GI50: > 100 µM (inactive)
HT-29
  GI50: > 100 µM (inactive)
IGROV-1
  GI50: > 100 µM (inactive)
M14
  GI50: > 100 µM (inactive)
MOLT-4
  GI50: > 100 µM (inactive)
Malme-3M
  GI50: > 100 µM (inactive)
NCI-H522
  GI50: > 100 µM (inactive)
NCI/ADR-RES
  GI50: > 100 µM (inactive)
RXF 393
  GI50: > 100 µM (inactive)
SF-539
  GI50: > 100 µM (inactive)
SK-MEL-28
  GI50: > 100 µM (inactive)
SK-MEL-5
  GI50: > 100 µM (inactive)
SW-620
  GI50: > 100 µM (inactive)
T47D
  GI50: > 100 µM (inactive)
U-251
  GI50: > 100 µM (inactive)
UACC-257
  GI50: > 100 µM (inactive)

## COc1ccc(-n2c(N)c(C#N)c(C#N)c2-c2cccc([N+](=O)[O-])c2)cc1
786-0
  GI50: 33.9 µM (inactive)
CAKI-1
  GI50: > 100 µM (inactive)
COLO 205
  GI50: > 100 µM (inactive)
DU-145
  GI50: 43.3 µM (inactive)
HT-29
  GI50: 25.3 µM (inactive)
IGROV-1
  GI50: 23.8 µM (inactive)
M14
  GI50: > 100 µM (inactive)
MOLT-4
  GI50: 2.46 µM (inactive)
Malme-3M
  GI50: > 100 µM (inactive)
NCI-H522
  GI50: > 100 µM (inactive)
NCI/ADR-RES
  GI50: > 100 µM (inactive)
RXF 393
  GI50: 2.55 µM (inactive)
SF-539
  GI50: 32.4 µM (inactive)
SK-MEL-5
  GI50: 22.9 µM (inactive)
SW-620
  GI50: > 100 µM (inactive)
T47D
  GI50: 35.2 µM (inactive)
U-251
  GI50: 38.8 µM (inactive)
UACC-257
  GI50: > 100 µM (inactive)
UO-31
  GI50: 15 µM (inactive)

## CC(C)=CC[C@]12CCN(C)[C@H]1N(S(=O)(=O)c1ccccc1)c1ccccc12
786-0
  GI50: 42.3 µM (inactive)
CAKI-1
  GI50: > 25.6 µM (inactive)
DU-145
  GI50: > 30.8 µM (inactive)
HT-29
  GI50: > 46.5 µM (inactive)
IGROV-1
  GI50: > 56.9 µM (inactive)
MOLT-4
  GI50: > 43.4 µM (inactive)
Malme-3M
  GI50: > 49.2 µM (inactive)
NCI-H522
  GI50: 15.8 µM (inactive)
NCI/ADR-RES
  GI50: > 82.8 µM (inactive)
RXF 393
  GI50: > 38.3 µM (inactive)
SF-539
  GI50: 58.9 µM (inactive)
SK-MEL-28
  GI50: > 64.6 µM (inactive)
SK-MEL-5
  GI50: 11.9 µM (inactive)
SW-620
  GI50: > 60.3 µM (inactive)
T47D
  GI50: 9.73 µM (inactive)
U-251
  GI50: 32.7 µM (inactive)
UACC-257
  GI50: > 39.5 µM (inactive)
UO-31
  GI50: > 22.5 µM (inactive)
